This passage reports Ki and ED50 results from ChEMBL document CHEMBL1130362, “Pyrrolylquinoxalinediones: The importance of pyrrolic substitution on AMPA receptor binding” (Bioorg Med Chem Lett, 1997).

Assay [1] concerns the target Glutamate receptor ionotropic AMPA (Homo sapiens, UniProt P42261+P42262+P42263+P48058).
Description: Displacement of [3H]AMPA from AMPA receptor
The target in assay [2] is Glutamate receptor ionotropic, NMDA 2C (Rattus norvegicus, UniProt Q00961). Put plainly: Ability to displace [3H]glycine from NMDA receptor.
Assay [3] deals with Mus musculus. Put plainly: In vivo AMPA antagonism to protect 50% animals after intraperitoneal administration of the compound. In kind it is functional. To be noted: ip.

Each structure is given as a SMILES string. Some results are limits rather than exact numbers.

Chain of Glutamate receptor ionotropic, NMDA 2C (Q00961 whole entry): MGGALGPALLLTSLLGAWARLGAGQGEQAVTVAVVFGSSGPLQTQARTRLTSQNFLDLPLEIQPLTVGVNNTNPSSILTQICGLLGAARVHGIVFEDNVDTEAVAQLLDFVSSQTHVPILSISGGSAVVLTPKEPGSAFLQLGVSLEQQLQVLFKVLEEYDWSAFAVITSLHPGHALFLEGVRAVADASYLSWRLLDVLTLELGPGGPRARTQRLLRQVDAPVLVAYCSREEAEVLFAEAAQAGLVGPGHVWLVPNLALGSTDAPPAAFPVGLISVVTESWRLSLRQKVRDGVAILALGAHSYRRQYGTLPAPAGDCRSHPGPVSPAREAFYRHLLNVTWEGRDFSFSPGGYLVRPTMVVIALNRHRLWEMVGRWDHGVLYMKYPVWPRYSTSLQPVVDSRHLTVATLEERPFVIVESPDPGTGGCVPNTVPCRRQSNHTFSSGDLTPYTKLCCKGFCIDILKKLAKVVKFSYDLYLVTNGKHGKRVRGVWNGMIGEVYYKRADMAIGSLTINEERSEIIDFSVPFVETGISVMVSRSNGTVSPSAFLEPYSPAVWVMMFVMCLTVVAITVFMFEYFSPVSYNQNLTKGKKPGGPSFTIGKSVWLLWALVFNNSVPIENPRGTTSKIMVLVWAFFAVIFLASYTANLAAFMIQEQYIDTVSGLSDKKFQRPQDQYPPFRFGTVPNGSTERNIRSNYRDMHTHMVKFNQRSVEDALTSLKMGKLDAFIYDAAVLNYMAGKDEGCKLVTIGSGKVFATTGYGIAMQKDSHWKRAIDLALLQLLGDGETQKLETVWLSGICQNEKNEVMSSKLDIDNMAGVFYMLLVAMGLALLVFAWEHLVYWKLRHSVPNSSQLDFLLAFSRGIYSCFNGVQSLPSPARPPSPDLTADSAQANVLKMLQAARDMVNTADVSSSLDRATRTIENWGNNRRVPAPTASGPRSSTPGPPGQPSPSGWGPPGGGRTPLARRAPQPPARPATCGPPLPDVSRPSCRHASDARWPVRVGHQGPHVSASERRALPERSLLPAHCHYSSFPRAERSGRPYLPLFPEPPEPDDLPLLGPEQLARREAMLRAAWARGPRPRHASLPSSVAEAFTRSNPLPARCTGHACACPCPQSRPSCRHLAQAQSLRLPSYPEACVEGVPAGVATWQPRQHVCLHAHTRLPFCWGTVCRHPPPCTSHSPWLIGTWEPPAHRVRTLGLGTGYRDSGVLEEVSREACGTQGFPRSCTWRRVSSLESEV

Regarding `O=C(NCc1ccn(-c2cc3nc(O)c(O)nc3cc2[N+](=O)[O-])c1)Nc1ccccc1`, the Ki in assay [1] was 250 nM; in assay [2], above 30000 nM. The compound also returned an ED50 in assay [3] of 30 mg/kg.
`CCN(CC)Cc1ccn(-c2cc3c(cc2C(F)(F)F)[nH]c(=O)c(=O)n3CC(=O)O)c1` displayed a Ki in assay [1] of 890 nM.
Consider `NCc1ccn(-c2cc3nc(O)c(O)nc3cc2[N+](=O)[O-])c1`, for which the affinity in assay [1] corresponds to a Ki of 2000 nM.
As to `O=C(O)Cn1c(=O)c(=O)[nH]c2cc(C(F)(F)F)c(-n3ccc(CNC(=O)NCc4ccccc4)c3)cc21`, the Ki in assay [1] is 49 nM; in assay [2], above 30000 nM. This compound also yielded an ED50 in assay [3] of 30 mg/kg.
In the case of `O=C(O)Cn1c(=O)c(=O)[nH]c2cc([N+](=O)[O-])c(-n3ccc(/C=N/OCc4ccccc4)c3)cc21`, in assay [1], the Ki stood at 210 nM.
Consider `O=C(O)Cn1c(=O)c(=O)[nH]c2cc(C(F)(F)F)c(-n3ccc(CNC(=O)c4ccccc4)c3)cc21`, for which the Ki was 78 nM in assay [1] and above 30000 nM in assay [2]. This compound returned an ED50 in assay [3] above 30 mg/kg.
`O=C(O)Cn1c(=O)c(=O)[nH]c2cc(C(F)(F)F)c(-n3ccc(CNC(=O)Cc4ccccc4)c3)cc21`: affinity in assay [1] was put at a Ki of 140 nM.
Still for that read-out and setting: the figure for `Cc1ccc(C)n1-c1cc2nc(O)c(O)nc2cc1[N+](=O)[O-]` is 20000 nM; for `O=C(O)Cn1c(=O)c(=O)[nH]c2cc([N+](=O)[O-])c(-n3ccc(CNC(=O)CCc4ccccc4)c3)cc21` it is 500 nM.
In assay [3], `NS(=O)(=O)c1cccc2c1c([N+](=O)[O-])cc1nc(O)c(O)nc12` [NBQX] returned a 50% effective dose (ED50) above 50 mg/kg.
Regarding `O=C(O)Cn1c(=O)c(=O)[nH]c2cc([N+](=O)[O-])c(-n3cccc3)cc21`, the Ki in assay [1] was determined as 70 nM.
Same read-out and setting: with `Oc1nc2cc(-n3cccc3)c(C(F)(F)F)cc2nc1O` the figure was 3000 nM; with `O=C(O)Cn1c(=O)c(=O)[nH]c2cc([N+](=O)[O-])c(-n3ccc(CNC(=O)c4ccncc4)c3)cc21`, 280 nM.
With `O=C(O)Cn1c(=O)c(=O)[nH]c2cc(C(F)(F)F)c(-n3ccc(CNC(=O)Nc4ccc([N+](=O)[O-])cc4)c3)cc21`, the inhibition constant (Ki) in assay [1] is 5 nM; in assay [2], above 30000 nM. This compound also gave an ED50 in assay [3] of 5.5 mg/kg.
In the case of `O=c1[nH]c2cc(-n3ccnc3)c([N+](=O)[O-])cc2[nH]c1=O` [YM-90K], the Ki in assay [1] amounted to 135 nM.
The same measure, in the same setting: the figure for `COC(=O)c1cccn1-c1cc2nc(O)c(O)nc2cc1C(F)(F)F` is above 25000 nM; for `O=C(O)c1cccn1-c1cc2nc(O)c(O)nc2cc1C(F)(F)F` it is above 25000 nM.
`NCc1ccn(-c2cc3c(cc2[N+](=O)[O-])[nH]c(=O)c(=O)n3CC(=O)O)c1` came in with a Ki in assay [1] of 840 nM.
With `O=C(O)Cn1c(=O)c(=O)[nH]c2cc(C(F)(F)F)c(-n3cccc3)cc21`, the Ki in assay [1] came out at 180 nM.
As for `O=[N+]([O-])c1cc2nc(O)c(O)nc2cc1-n1cccc1`, in assay [1], the Ki worked out at 400 nM.
`CN(Cc1ccccc1)Cc1ccn(-c2cc3nc(O)c(O)nc3cc2[N+](=O)[O-])c1` yielded a Ki in assay [1] of 880 nM.
`O=C(O)Cn1c(=O)c(=O)[nH]c2cc([N+](=O)[O-])c(-n3ccc(CNC(=O)NCCc4ccncc4)c3)cc21`: in assay [1], the Ki was 95 nM.
For the compound `O=C(O)Cn1c(=O)c(=O)[nH]c2cc(C(F)(F)F)c(-n3ccc(CNC(=O)Nc4ccc(Br)cc4)c3)cc21`, the Ki in assay [1] was 4 nM; in assay [2] it was above 30000 nM. The same compound came in with an ED50 in assay [3] of 4.1 mg/kg.
`CC(=O)NCc1ccn(-c2cc3c(cc2C(F)(F)F)[nH]c(=O)c(=O)n3CC(=O)O)c1`: the Ki in assay [1] is 76 nM; in assay [2] it was above 30000 nM. The ED50 in assay [3] turned out to be 10 mg/kg.
`O=C(O)Cn1c(=O)c(=O)[nH]c2cc([N+](=O)[O-])c(-n3ccc(CNC(=O)Nc4ccccc4)c3)cc21`: the Ki in assay [1] is 71 nM; in assay [2], above 30000 nM. In addition, the ED50 in assay [3] is above 30 mg/kg.
In assay [1], `Cc1ccc(C)n1-c1cc2c(cc1C(F)(F)F)[nH]c(=O)c(=O)n2CC(=O)O` gave a Ki of 2000 nM.
As to `NCc1ccn(-c2cc3c(cc2C(F)(F)F)[nH]c(=O)c(=O)n3CC(=O)O)c1`, the affinity in assay [1] corresponds to a Ki of 10000 nM.
In turn, `O=C(NCc1ccccc1)c1cccn1-c1cc2nc(O)c(O)nc2cc1C(F)(F)F` gave a Ki in assay [1] above 25000 nM.
Still for that read-out and setting: with `Cc1ccc(C)n1-c1cc2nc(O)c(O)nc2cc1C(F)(F)F` the figure was above 25000 nM.
For the compound `O=C(O)Cn1c(=O)c(=O)[nH]c2cc(C(F)(F)F)c(-n3ccc(CNC(=O)Nc4ccc(C(F)(F)F)cc4)c3)cc21`, the Ki in assay [1] was 5 nM; in assay [2], above 30000 nM. Further, the ED50 in assay [3] amounted to 14 mg/kg.
For the compound `NCc1ccn(-c2cc3nc(O)c(O)nc3cc2C(F)(F)F)c1`, the affinity in assay [1], expressed as Ki, was 980 nM.
The same measure, in the same setting: the figure for `O=C(O)Cn1c(=O)c(=O)[nH]c2cc(C(F)(F)F)c(-n3ccc(/C=N/OCc4ccccc4)c3)cc21` is 250 nM.
With `O=C(O)Cn1c(=O)c(=O)[nH]c2cc(C(F)(F)F)c(-n3ccc(CNC(=O)Nc4ccccc4)c3)cc21`, the Ki was 15 nM in assay [1] and above 30000 nM in assay [2]. Further, the ED50 in assay [3] is 18 mg/kg.
In the case of `O=C(O)Cn1c(=O)c(=O)[nH]c2cc([N+](=O)[O-])c(-n3ccc(CC(=O)N4CCCCC4)c3)cc21`, affinity in assay [1] was put at a Ki of 3000 nM.
On the same count and under the same terms, with `O=Cc1ccn(-c2cc3nc(O)c(O)nc3cc2C(F)(F)F)c1` the figure was 650 nM; with `O=C(NCc1ccn(-c2cc3nc(O)c(O)nc3cc2[N+](=O)[O-])c1)Nc1ccncc1`, 110 nM.

What is called Ki is a dissociation constant, usually derived from enzyme kinetics or from competition with a known ligand. High values mean weaker binding, low ones tighter binding. As a reminder, the ED50 is the midpoint of the dose-response relation. A lower ED50 goes with greater potency.
